For series [1], the system named is cyp3a4 and mdr-1 mRNA (PXR downstream genes). To be noted: human.
Another series deals with MHCC97-H cells. Kind of series: MTT cell survival examination. The class given is cell-based. The settings on record: Homo sapiens, MHCC97H, 48 h. On the procedure:
(§1) In the process of dissolving these pure drug powders, stirring, vortexing, and ultrasonic vibration were used to assist dissolution [17, 18]. After a drug was fully dissolved, Dulbecco’s modified Eagle’s medium (DMEM) without fetal bovine serum (FBS) was used to dilute the drug dissolved in DMSO. For doxorubicin, we used DMEM without FBS to dissolve the drug. When performing cell viability experiments (tetrazolium [MTT] assays), these drugs were diluted.
(§2) The antitumor activity of antitumor drugs injuring HCC cells was examined by using MTT assay. After culturing the HCC cells, transfection experiments were performed, and the cells were then seeded in 96-well cell culture plates (about 8000 cells per well). […] After the cells were treated with the drug for about 48 h, a dose of […] tetrazolium (MTT) reagent was added, and cells with the MTT reagent were incubated for 5 to 6 h. After incubation with the MTT was complete, all liquid in the 96-well cell culture plate was discarded, and about 100 μl of DMSO was added to each well to dissolve the cell samples. During the process of lysing the cell samples, the cell culture plate was shaken for 15 minutes to completely lyse the cells. After the lysis step was complete, the cell culture plate was centrifuged at 12,000 rpm at 4 °C, and the supernatant was collected for evaluation.
(§3) All statistical analyses in the presence work were performed using the GraphPad 8.0 (GraphPad Software Corporation, Armonk, NY, USA). […] For the survival analysis data, the survival curves were analyzed by the log-rank (Mantel–Cox) test to detect the P-value of the survival curve, the median survival time, and the 95% confidence interval (CI). For the co-relationship analysis, the data were analyzed by linear regression to determine the overall trend of a group of data points. […] If the slope was positive, the horizontal coordinate was positively related to the vertical coordinate, and if the slope was negative, the horizontal coordinate was negatively related to the vertical coordinate. For the multi-grouped data, the ordinary one-way analysis of variance (ANOVA) and multiple comparison methods were used. An ANOVA was used to examine whether any difference between groups could be detected. The multiple comparisons (t-test) was used to detect differences between pairs of data.

The next series concerns MHCC97-L cells. Kind of series: MTT cell survival examination. The class given is cell-based. To be noted: Homo sapiens, MHCC97L, 48 h, median (95% CI). On the procedure:
as §1, §2, §3

A further series relates to HepG2 cells. The series can be described thus: MTT cell survival examination. The format is cell-based. The settings on record: Homo sapiens, HepG2, 48 h. The method, then:
as §1, §2, §3

The target of the next series is T1, PXR (Homo sapiens, UniProt O75469).
T1 sequence (O75469 1-434): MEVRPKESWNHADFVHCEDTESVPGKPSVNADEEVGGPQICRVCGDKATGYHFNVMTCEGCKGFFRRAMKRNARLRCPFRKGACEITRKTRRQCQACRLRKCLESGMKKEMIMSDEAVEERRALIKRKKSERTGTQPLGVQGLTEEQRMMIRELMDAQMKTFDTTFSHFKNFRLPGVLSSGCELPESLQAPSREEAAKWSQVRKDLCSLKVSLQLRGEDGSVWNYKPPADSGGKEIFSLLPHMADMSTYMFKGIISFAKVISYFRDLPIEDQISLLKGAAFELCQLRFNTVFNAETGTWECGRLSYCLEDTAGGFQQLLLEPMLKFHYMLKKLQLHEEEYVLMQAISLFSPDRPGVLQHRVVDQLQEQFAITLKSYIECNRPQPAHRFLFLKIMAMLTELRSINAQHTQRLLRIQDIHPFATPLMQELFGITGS
The settings on record: in combination with rifampicin.

[2] abbreviates: HepG2, Control, median (95% CI).
Where [3] appears, read: HepG2, TPX2 overexpression, median (95% CI).

The structures appear in SMILES notation. pIC50: −log10 of the molar value.

For orientation: pIC50 means −log10 of the IC50, conventionally taken in molar units. Low readings indicate a large IC50, high ones a small IC50.

Turning to `CC(=O)N1CCN(c2ccc(OCC3COC(Cn4ccnc4)(c4ccc(Cl)cc4Cl)O3)cc2)CC1` (stereo not drawn) [ketoconazole], the “effect on rifampicin- and TPX2-induced transcription of PXR downstream genes (mRNA levels)” value in series [1] was “almost blocked the effects of rifampicin and TPX2”.

In the case of `COc1cc2nccc(Oc3ccc(NC(=O)C4(C(=O)Nc5ccc(F)cc5)CC4)cc3)c2cc1OC` [cabozantinib], the pIC50 was 6.12 with MHCC97-H cells (Control, median (95% CI)); 6.59 with MHCC97-H cells (siTPX2, median (95% CI)); 5.83 with MHCC97-L cells (Control); 5.30 in the series on MHCC97-L cells (TPX2 overexpression); 6.06 with HepG2 cells (setting [2]); 5.32 with HepG2 cells (setting [3]). In the series with HepG2 cells (HepG2, siTPX2, median (95% CI)), this molecule showed a pIC50 of 6.41.

With `COc1cc2nccc(Oc3ccc(NC(=O)NC4CC4)c(Cl)c3)c2cc1C(N)=O` [lenvatinib], the pIC50 with MHCC97-H cells (Control, median (95% CI)) was 5.97; in the series on MHCC97-H cells (siTPX2, median (95% CI)) it was 6.30; in the series with MHCC97-L cells (Control), 5.71; with MHCC97-L cells (TPX2 overexpression) it was 5.24; in the series with HepG2 cells (setting [2]), 5.89; with HepG2 cells (setting [3]), 5.23. In addition, the pIC50 with HepG2 cells (HepG2, siTPX2, median (95% CI)) was 6.48.

Regarding `CC[C@]1(O)C[C@H]2CN(CCc3c([nH]c4ccccc34)[C@@](C(=O)OC)(c3cc4c(cc3OC)N(C=O)[C@H]3[C@@](O)(C(=O)OC)[C@H](OC(C)=O)[C@]5(CC)C=CCN6CC[C@]43[C@@H]65)C2)C1` [vincristine], at PXR, the “effect on TPX2/rifampicin-driven PXR recruitment to cyp3a4 promoter or enhancer” value is “almost blocked”.

Turning to `COc1cccc2c1C(=O)c1c(O)c3c(c(O)c1C2=O)C[C@@](O)(C(=O)CO)C[C@@H]3O[C@H]1C[C@H](N)[C@H](O)[C@H](C)O1` [doxorubicin], the pIC50 with MHCC97-H cells (Control, median (95% CI)) is 6.70; in the series with MHCC97-H cells (siTPX2, median (95% CI)) it was 7.22; in the series with MHCC97-L cells (Control), 6.60; in the series on MHCC97-L cells (TPX2 overexpression), 6.09; with HepG2 cells (setting [2]), 6.48; in the series on HepG2 cells (setting [3]), 5.80. For the same molecule, the pIC50 with HepG2 cells (HepG2, siTPX2, median (95% CI)) was 7.30.

For `CNC(=O)c1cc(Oc2ccc(NC(=O)Nc3ccc(Cl)c(C(F)(F)F)c3)c(F)c2)ccn1` [regorafenib], the pIC50 is 6.00 in the series on MHCC97-H cells (Control, median (95% CI)); 6.12 with MHCC97-H cells (siTPX2, median (95% CI)); 5.82 with MHCC97-L cells (Control); 5.31 in the series on MHCC97-L cells (TPX2 overexpression); 6.00 with HepG2 cells (setting [2]); 5.44 with HepG2 cells (setting [3]). The molecule also showed a pIC50 in the series with HepG2 cells (HepG2, siTPX2, median (95% CI)) of 6.21.

On to `CC(=O)O[C@H]1C(=O)[C@@]2(C)[C@H]([C@H](OC(=O)c3ccccc3)[C@]3(O)C[C@H](OC(=O)[C@H](O)[C@@H](NC(=O)c4ccccc4)c4ccccc4)C(C)=C1C3(C)C)[C@]1(OC(C)=O)CO[C@@H]1C[C@@H]2O` [paclitaxel], for which the pIC50 was 7.90 in the series with MHCC97-H cells (Control, median (95% CI)); 8.38 in the series with MHCC97-H cells (siTPX2, median (95% CI)); 7.66 with MHCC97-L cells (Control); 6.82 in the series with MHCC97-L cells (TPX2 overexpression); 7.83 with HepG2 cells (setting [2]); 6.62 in the series with HepG2 cells (setting [3]). This molecule gave a pIC50 in the series with HepG2 cells (HepG2, siTPX2, median (95% CI)) of 8.08.

Consider `COc1cc([C@@H]2c3cc4c(cc3[C@@H](O[C@@H]3O[C@@H]5CO[C@@H](C)O[C@H]5[C@H](O)[C@H]3O)[C@H]3COC(=O)[C@H]23)OCO4)cc(OC)c1O` [etoposide], for which the pIC50 with MHCC97-H cells (Control, median (95% CI)) is 6.60; in the series with MHCC97-H cells (siTPX2, median (95% CI)) it was 7.00; with MHCC97-L cells (Control), 6.42; with MHCC97-L cells (TPX2 overexpression) it was 5.88; in the series on HepG2 cells (setting [2]) it was 6.34; in the series with HepG2 cells (setting [3]) it was 5.71. The same molecule had a pIC50 with HepG2 cells (HepG2, siTPX2, median (95% CI)) of 6.74.

With `CCc1c2c(nc3ccc(OC(=O)N4CCC(N5CCCCC5)CC4)cc13)-c1cc3c(c(=O)n1C2)COC(=O)[C@]3(O)CC` [irinotecan], the pIC50 in the series with MHCC97-H cells (Control, median (95% CI)) was 6.28; in the series on MHCC97-H cells (siTPX2, median (95% CI)) it was 6.80; with MHCC97-L cells (Control) it was 6.37; in the series on MHCC97-L cells (TPX2 overexpression), 6.01; in the series with HepG2 cells (setting [2]) it was 6.52; in the series on HepG2 cells (setting [3]) it was 6.09. Besides, the pIC50 in the series on HepG2 cells (HepG2, siTPX2, median (95% CI)) was 7.00.

The record behind these values is publication PMC9883482, “TPX2 enhances the transcription factor activation of PXR and enhances the resistance of hepatocellular carcinoma cells to antitumor drugs” (Cell Death & Disease, 2023).
